Laboratory results reported in US20200181117A1, “SUBSTITUTED 3-HETEROARYLOXY-1H-PYRAZOLES AND SALTS THEREOF AND THEIR USE AS HERBICIDAL ACTIVE SUBSTANCES” (BAYER CROPSCIENCE AKTIENGESELLSCHAFT, priority 2017, published 2020).

Experiments:
Format in all cases: in vivo
Stellaria media [1] = assay: Post-emergence herbicidal action; details: 1280 g/ha, rated visually after about 3 weeks vs untreated controls
Summary of the method: (§1)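 Visual rating against untreated plants, about 3 weeks post-treatment, on a 0-100% scale where 100% means plant death. Treatment: 1280 g/ha of WP/EC preparations with 0.5% additive in 600 l/ha water, sprayed on one-leaf-stage weeds grown in greenhouse sandy loam.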

Pharbitis purpurea [2] = assay: Post-emergence herbicidal action; details: 1280 g/ha, rated visually after about 3 weeks vs untreated controls
Summary of the method: as §1

Viola tricolor [3] = assay: Post-emergence herbicidal action; details: 1280 g/ha, rated visually after about 3 weeks vs untreated controls
Summary of the method: as §1

Setaria viridis [4] = assay: Post-emergence herbicidal action; details: 1280 g/ha, rated visually after about 3 weeks vs untreated controls
Summary of the method: as §1

Echinochloa crus-galli [5] = assay: Post-emergence herbicidal action; details: 1280 g/ha, rated visually after about 3 weeks vs untreated controls
Summary of the method: as §1

Abutilon theophrasti [6] = assay: Post-emergence herbicidal action; details: 1280 g/ha, rated visually after about 3 weeks vs untreated controls
Summary of the method: as §1

Avena fatua [7] = assay: Post-emergence herbicidal action; details: 1280 g/ha, rated visually after about 3 weeks vs untreated controls
Summary of the method: as §1

Polygonum convolvulus [8] = assay: Post-emergence herbicidal action; details: 1280 g/ha, rated visually after about 3 weeks vs untreated controls
Summary of the method: as §1

Veronica persica [9] = assay: Post-emergence herbicidal action; details: 1280 g/ha, rated visually after about 3 weeks vs untreated controls
Summary of the method: as §1

Amaranthus retroflexus [10] = assay: Post-emergence herbicidal action; details: 1280 g/ha, rated visually after about 3 weeks vs untreated controls
Summary of the method: as §1

Alopecurus myosuroides [11] = assay: Post-emergence herbicidal action; details: 1280 g/ha, rated visually after about 3 weeks vs untreated controls
Summary of the method: as §1

Stellaria media [12] = assay: Pre-emergence herbicidal action; details: 1280 g/ha, scored visually after about 3 weeks vs untreated controls
Summary of the method: (§2)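 Greenhouse pots with seeds under a soil layer were treated on the soil surface with compound at 1280 g/ha, formulated as WP or EC plus 0.5% additive. About 3 weeks later, visual % effect versus untreated controls was recorded.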

Viola tricolor [13] = assay: Pre-emergence herbicidal action; details: 1280 g/ha, scored visually after about 3 weeks vs untreated controls
Summary of the method: as §2

Lolium rigidum [14] = assay: Pre-emergence herbicidal action; details: 1280 g/ha, scored visually after about 3 weeks vs untreated controls
Summary of the method: as §2

Matricaria inodora [15] = assay: Pre-emergence herbicidal action; details: 1280 g/ha, scored visually after about 3 weeks vs untreated controls
Summary of the method: as §2

Setaria viridis [16] = assay: Pre-emergence herbicidal action; details: 1280 g/ha, scored visually after about 3 weeks vs untreated controls
Summary of the method: as §2

Echinochloa crus-galli [17] = assay: Pre-emergence herbicidal action; details: 1280 g/ha, scored visually after about 3 weeks vs untreated controls
Summary of the method: as §2

Abutilon theophrasti [18] = assay: Pre-emergence herbicidal action; details: 1280 g/ha, scored visually after about 3 weeks vs untreated controls
Summary of the method: as §2

Avena fatua [19] = assay: Pre-emergence herbicidal action; details: 1280 g/ha, scored visually after about 3 weeks vs untreated controls
Summary of the method: as §2

Polygonum convolvulus [20] = assay: Pre-emergence herbicidal action; details: 1280 g/ha, scored visually after about 3 weeks vs untreated controls
Summary of the method: as §2

Veronica persica [21] = assay: Pre-emergence herbicidal action; details: 1280 g/ha, scored visually after about 3 weeks vs untreated controls
Summary of the method: as §2

Amaranthus retroflexus [22] = assay: Pre-emergence herbicidal action; details: 1280 g/ha, scored visually after about 3 weeks vs untreated controls
Summary of the method: as §2

Alopecurus myosuroides [23] = assay: Pre-emergence herbicidal action; details: 1280 g/ha, scored visually after about 3 weeks vs untreated controls
Summary of the method: as §2

Hordeum murinum [24] = assay: Pre-emergence herbicidal action; details: 1280 g/ha, scored visually after about 3 weeks vs untreated controls
Summary of the method: as §2

Hordeum murinum [25] = assay: Post-emergence herbicidal action; details: 1280 g/ha, rated visually after about 3 weeks vs untreated controls
Summary of the method: as §1

Lolium rigidum [26] = assay: Post-emergence herbicidal action; details: 1280 g/ha, rated visually after about 3 weeks vs untreated controls
Summary of the method: as §1

Pharbitis purpurea [27] = assay: Pre-emergence herbicidal action; details: 1280 g/ha, scored visually after about 3 weeks vs untreated controls
Summary of the method: as §2

Matricaria inodora [28] = assay: Post-emergence herbicidal action; details: 1280 g/ha, rated visually after about 3 weeks vs untreated controls
Summary of the method: as §1

Compound	herbicidal activity on Stellaria media (Stellaria media [1])	herbicidal activity on Viola tricolor (Viola tricolor [3])	herbicidal activity on Setaria viridis (Setaria viridis [4])	herbicidal activity on Echinochloa crus-galli (Echinochloa crus-galli [5])	herbicidal activity on Abutilon theophrasti (Abutilon theophrasti [6])	herbicidal activity on Polygonum convolvulus (Polygonum convolvulus [8])	herbicidal activity on Amaranthus retroflexus (Amaranthus retroflexus [10])	herbicidal activity on Alopecurus myosuroides (Alopecurus myosuroides [11])	herbicidal activity on Stellaria media (Stellaria media [12])	herbicidal activity on Viola tricolor (Viola tricolor [13])	herbicidal activity on Lolium rigidum (Lolium rigidum [14])	herbicidal activity on Matricaria inodora (Matricaria inodora [15])	herbicidal activity on Setaria viridis (Setaria viridis [16])	herbicidal activity on Echinochloa crus-galli (Echinochloa crus-galli [17])	herbicidal activity on Abutilon theophrasti (Abutilon theophrasti [18])	herbicidal activity on Avena fatua (Avena fatua [19])	herbicidal activity on Polygonum convolvulus (Polygonum convolvulus [20])	herbicidal activity on Amaranthus retroflexus (Amaranthus retroflexus [22])	herbicidal activity on Alopecurus myosuroides (Alopecurus myosuroides [23])	herbicidal activity on Hordeum murinum (Hordeum murinum [24])	also measured
Cc1c(Sc2ccc(F)c(F)c2)c(Oc2cnccn2)nn1C [Example I-141]	100%	90%	90%	100%	90%	100%	100%	80%	90%	100%	90%	100%	100%	100%	100%	80%	100%	100%	90%	80%	herbicidal activity on Pharbitis purpurea (Pharbitis purpurea [2]): 80%; herbicidal activity on Avena fatua (Avena fatua [7]): 80%; herbicidal activity on Veronica persica (Veronica persica [9]): 100%; herbicidal activity on Veronica persica (Veronica persica [21]): 100%
Cc1c(Sc2cccc(Cl)c2)c(Oc2ncccn2)nn1C [Example I-069]		100%	80%	80%	80%	100%	100%	100%	100%	100%	100%	100%	100%	100%	100%	100%	100%	100%	100%	100%	herbicidal activity on Hordeum murinum (Hordeum murinum [25]): 80%; herbicidal activity on Veronica persica (Veronica persica [21]): 100%
Cc1c(Sc2cccc(F)c2)c(Oc2ncc(F)cn2)nn1C [Example I-158]	90%	100%	100%	100%	90%	100%	100%	100%	100%	100%	100%	100%	100%	100%	100%	100%	100%	100%	100%	100%	herbicidal activity on Pharbitis purpurea (Pharbitis purpurea [2]): 80%; herbicidal activity on Lolium rigidum (Lolium rigidum [26]): 100%; herbicidal activity on Avena fatua (Avena fatua [7]): 80%; herbicidal activity on Veronica persica (Veronica persica [21]): 100%
Cc1c(Sc2ccccc2)c(Oc2ncc(F)cn2)nn1C [Example I-133]	100%	100%	100%	100%	100%	100%	100%	100%	100%	100%	100%	100%	100%	100%	100%	100%	100%	100%	100%	100%	herbicidal activity on Pharbitis purpurea (Pharbitis purpurea [2]): 100%; herbicidal activity on Lolium rigidum (Lolium rigidum [26]): 90%; herbicidal activity on Veronica persica (Veronica persica [9]): 100%; herbicidal activity on Hordeum murinum (Hordeum murinum [25]): 90%
Cc1c(Sc2ccc(F)c(F)c2)c(Oc2ncc(F)cn2)nn1C [Example I-093]	100%	100%	100%	100%	90%	100%	100%	100%	100%	100%	100%	100%	100%	100%	100%	100%	100%	100%	100%	100%	herbicidal activity on Pharbitis purpurea (Pharbitis purpurea [2]): 90%; herbicidal activity on Lolium rigidum (Lolium rigidum [26]): 100%; herbicidal activity on Avena fatua (Avena fatua [7]): 100%; herbicidal activity on Hordeum murinum (Hordeum murinum [25]): 90%; herbicidal activity on Pharbitis purpurea (Pharbitis purpurea [27]): 80%; herbicidal activity on Veronica persica (Veronica persica [21]): 100%
Cc1c(Sc2ccc(F)cc2Cl)c(Oc2ncc(F)cn2)nn1C [Example I-065]	90%	100%			80%	100%	100%		100%	100%		90%	100%		80%		100%	100%			herbicidal activity on Pharbitis purpurea (Pharbitis purpurea [2]): 100%; herbicidal activity on Matricaria inodora (Matricaria inodora [28]): 80%
Cc1c(Sc2ccc(F)c(F)c2)c(Oc2ncccn2)nn1C [Example I-036]	90%	100%	90%	90%	90%	100%	100%	90%	100%	100%	100%	90%	100%	100%	100%	90%		90%	90%	100%	herbicidal activity on Lolium rigidum (Lolium rigidum [26]): 90%; herbicidal activity on Avena fatua (Avena fatua [7]): 100%; herbicidal activity on Pharbitis purpurea (Pharbitis purpurea [27]): 80%; herbicidal activity on Veronica persica (Veronica persica [21]): 100%
